According to patent US8772307B2, “Substituted spiro compounds and their use for producing pain-relief medicaments” (Gruenenthal GmbH, priority 2005, dated 2014):

Legend:
[1] = biological target: T1, vanilloid receptor (VR1) (Homo sapiens, UniProt Q8NER1); experiment: Functional testing on vanilloid receptor (VR1): FLIPR Ca2+ inflow assay in CHO K1 cells stably transfected with the VR1 gene; assay type: cell-based; conditions: for inhibition at 10 µM: CHO-K1, inhibition compared to 10 μM CP (capsaicin); for activation at 10 µM: CHO-K1, stimulation compared to 10 μM CP (capsaicin); for IC50: capsaicin (CAP) stimulus, average
T1 construct: expressed in transfected cells; host or cells: CHO K1 cells (ECACC), stably transfected
Source text: II. Functional Testing Carried Out on the Vanilloid Receptor (VR1)
The agonistic or antagonistic effect of the substances to be tested can also be determined on the vanilloid receptor (VR1) using the following assay. According to this assay, the Ca^2+ inflow is quantified through the channel using a Ca^2+-sensitive dye (type Fluo-4, Molecular Probes Europe BV, Leiden, Netherlands) in a fluorescent imaging plate reader (FLIPR, Molecular Devices, Sunnyvale, USA).
Chinese hamster ovary cells (CHO K1 cells, European Collection of Cell Cultures (ECACC) United Kingdom) were stably transfected with the VR1 gene. For functional testing, these cells were plated out on poly-D-lysine-coated black 96 well plates having a clear base (BD Biosciences, Heidelberg, Germany) at a density of 25,000 cells/well. The cells were incubated overnight at 37° C. and 5% CO2 in a culture medium (Ham's F12 nutrient mixture, 10% by volume of FCS (foetal calf serum), 18 μg/ml L-proline). The next day the cells were incubated with Fluo-4 (Fluo-4 2 μM, 0.01% by volume of Pluronic F127, Molecular Probes in HBSS (Hank's buffered saline solution), Gibco Invitrogen GmbH, Karlsruhe, Germany) for 30 minutes at 37° C. Subsequently, the plates were washed 3 times with HBSS buffer and after further incubation for 15 minutes at room temperature used for Ca^2+ measurement in a FLIPR assay. The Ca^2+-dependent fluorescence was measured before and after the addition of the substances to be tested (λex wavelength=488 nm, λem=540 nm). Quantification was carried out by measuring the highest fluorescence intensity (FC, Fluorescence Counts) over time.
The FLIPR protocol consists of 2 substance additions. First the compounds to be tested (10 μM) were pipetted onto the cells and the Ca^2+ inflow was compared with the control (capsaicin 10 μM) (% activation based on the Ca^2+ signal after the addition of 10 μM capsaicin). After 5 minutes' incubation, 100 nM of capsaicin were administered and the Ca^2+ inflow was also determined.
Desensitising agonists and antagonists led to suppression of the Ca^2+ inflow. The % inhibition was calculated compared to the maximum achievable inhibition with 10 μM of capsaicin.

[2] = biological target: T2, rat-species vanilloid receptor 1 (VR1/TRPV1) (Rattus norvegicus, UniProt O35433); experiment: Functional testing on vanilloid receptor 1 (VR1/TRPV1): FLIPR Ca2+ inflow assay in rat dorsal root ganglia cells (% activation / % inhibition vs capsaicin); assay type: cell-based; conditions: for inhibition at 10 µM: inhibition compared to 10 μM CP (capsaicin); for activation at 10 µM: stimulation compared to 10 μM CP (capsaicin); for IC50: capsaicin (CAP) stimulus, average
T2 construct: endogenous in cells; host or cells: primary cells dissociated from rat dorsal root ganglia (DRG)
Method: Preference may also be given to substituted spiro compounds according to the invention of general formula I which in a FLIPR assay in a concentration of 10 μM display inhibition of the Ca^2+ ion inflow in dorsal root ganglia of rats of at least 30%, preferably of at least 40%, particularly preferably of at least 50%, most particularly preferably of at least 70%, even more preferably of at least 90%, compared to the maximum achievable inhibition of the Ca^2+ ion inflow with capsaicin in a concentration of 10 μM.
In the FLIPR assay, the Ca^2+ inflow is quantified using a Ca^2+-sensitive dye (type Fluo-4, Molecular Probes Europe BV, Leiden, Netherlands) in a fluorescent imaging plate reader (FLIPR, Molecular Devices, Sunnyvale, USA), as described hereinafter.
I. Functional Testing Carried Out on the Vanilloid Receptor 1 (VR1/TRPV1 Receptor)
The agonistic or antagonistic effect of the substances to be tested can be determined on the rat-species vanilloid receptor 1 (VR1/TRPV1) using the following assay. According to this assay, the Ca^2+ inflow is quantified through the receptor channel using a Ca^2+-sensitive dye (type Fluo-4, Molecular Probes Europe BV, Leiden, Netherlands) in a fluorescent imaging plate reader (FLIPR, Molecular Devices, Sunnyvale, USA).
Complete medium: 50 mL HAMS F12 nutrient mixture (Gibco Invitrogen GmbH, Karlsruhe, Germany) with
10% by volume of FCS (foetal calf serum, Gibco Invitrogen GmbH, Karlsruhe, Germany, […]);
2 mM L-glutamine (Sigma, Munich, Germany);
1% by weight of AA solution (antibiotic/antimyotic solution, PAA, Pasching, Austria)
and 25 ng/ml NGF medium (2.5 S, Gibco Invitrogen GmbH, Karlsruhe, Germany)
Cell culture plate: Poly-D-lysine-coated, black 96 well plates having a clear base (96 well black/clear plate, BD Biosciences, Heidelberg, Germany) were additionally coated with laminin (Gibco Invitrogen GmbH, Karlsruhe, Germany), the laminin being diluted with PBS (Ca—Mg-free PBS, Gibco Invitrogen GmbH, Karlsruhe, Germany) to a concentration of 100 μg/mL. Aliquots having a laminin concentration of 100 μg/mL were removed and stored at −20° C. The aliquots were diluted with PBS in a ratio of 1:10 to 10 μg/mL laminin and in each case 50 μL of the solution were pipetted into a recess in the cell culture plate. The cell culture plates were incubated for at least two hours at 37° C., the excess solution was removed by suction-filtration and the recesses were each washed twice with PBS. The coated cell culture plates were stored with excess PBS which was not removed until just before the feeding of the cells.
Preparation of the Cells:
The vertebral column was removed from decapitated rats and placed immediately into cold HBSS buffer (Hank's buffered saline solution, Gibco Invitrogen GmbH, Karlsruhe, Germany), i.e. buffer located in an ice bath, mixed with 1% by volume (percent by volume) of an AA solution (antibiotic/antimyotic solution, PAA, Pasching, Austria). The vertebral column was cut longitudinally and removed together with fasciae from the vertebral canal. Subsequently, the dorsal root ganglia (DRG) were removed and again stored in cold HBSS buffer mixed with 1% by volume of an AA solution. The DRG, from which all blood remnants and spinal nerves had been removed, were transferred in each case to 500 μL of cold type 2 collagenase (PAA, Pasching, Austria) and incubated for 35 minutes at 37° C. After the addition of 2.5% by volume of trypsin (PAA, Pasching, Austria), incubation was continued for 10 minutes at 37° C. After complete incubation, the enzyme solution was carefully pipetted off and 500 μL of complete medium were added to each of the remaining DRG. The DRG were in each case suspended several times, drawn through cannulae No. 1, No. 12 and No. 16 using a syringe and transferred to a 50 mL Falcon tube which was filled up to 15 mL with complete medium. […]

T1 sequence (Q8NER1 whole entry): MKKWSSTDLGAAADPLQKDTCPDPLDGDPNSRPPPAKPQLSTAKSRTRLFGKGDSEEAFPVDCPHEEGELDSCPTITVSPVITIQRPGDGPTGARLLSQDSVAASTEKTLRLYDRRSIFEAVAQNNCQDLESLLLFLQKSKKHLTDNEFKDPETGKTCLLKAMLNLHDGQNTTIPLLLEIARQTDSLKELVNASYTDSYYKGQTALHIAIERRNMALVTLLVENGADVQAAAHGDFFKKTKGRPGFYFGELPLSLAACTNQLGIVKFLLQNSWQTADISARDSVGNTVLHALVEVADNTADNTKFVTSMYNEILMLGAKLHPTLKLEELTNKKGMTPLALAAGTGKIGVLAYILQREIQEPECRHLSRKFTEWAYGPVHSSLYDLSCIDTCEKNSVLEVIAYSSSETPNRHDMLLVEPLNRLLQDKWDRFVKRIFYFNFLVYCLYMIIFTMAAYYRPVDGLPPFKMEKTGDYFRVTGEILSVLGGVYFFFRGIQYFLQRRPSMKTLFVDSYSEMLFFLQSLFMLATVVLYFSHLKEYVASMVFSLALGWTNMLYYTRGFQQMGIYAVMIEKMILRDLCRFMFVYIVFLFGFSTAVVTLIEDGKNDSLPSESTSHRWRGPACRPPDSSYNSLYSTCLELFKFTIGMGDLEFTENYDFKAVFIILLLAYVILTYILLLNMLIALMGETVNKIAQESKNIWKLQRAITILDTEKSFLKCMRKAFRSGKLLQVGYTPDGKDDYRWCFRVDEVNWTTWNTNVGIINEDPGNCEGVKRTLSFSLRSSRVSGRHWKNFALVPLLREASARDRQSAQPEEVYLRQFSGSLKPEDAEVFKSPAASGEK
T2 sequence (O35433 whole entry): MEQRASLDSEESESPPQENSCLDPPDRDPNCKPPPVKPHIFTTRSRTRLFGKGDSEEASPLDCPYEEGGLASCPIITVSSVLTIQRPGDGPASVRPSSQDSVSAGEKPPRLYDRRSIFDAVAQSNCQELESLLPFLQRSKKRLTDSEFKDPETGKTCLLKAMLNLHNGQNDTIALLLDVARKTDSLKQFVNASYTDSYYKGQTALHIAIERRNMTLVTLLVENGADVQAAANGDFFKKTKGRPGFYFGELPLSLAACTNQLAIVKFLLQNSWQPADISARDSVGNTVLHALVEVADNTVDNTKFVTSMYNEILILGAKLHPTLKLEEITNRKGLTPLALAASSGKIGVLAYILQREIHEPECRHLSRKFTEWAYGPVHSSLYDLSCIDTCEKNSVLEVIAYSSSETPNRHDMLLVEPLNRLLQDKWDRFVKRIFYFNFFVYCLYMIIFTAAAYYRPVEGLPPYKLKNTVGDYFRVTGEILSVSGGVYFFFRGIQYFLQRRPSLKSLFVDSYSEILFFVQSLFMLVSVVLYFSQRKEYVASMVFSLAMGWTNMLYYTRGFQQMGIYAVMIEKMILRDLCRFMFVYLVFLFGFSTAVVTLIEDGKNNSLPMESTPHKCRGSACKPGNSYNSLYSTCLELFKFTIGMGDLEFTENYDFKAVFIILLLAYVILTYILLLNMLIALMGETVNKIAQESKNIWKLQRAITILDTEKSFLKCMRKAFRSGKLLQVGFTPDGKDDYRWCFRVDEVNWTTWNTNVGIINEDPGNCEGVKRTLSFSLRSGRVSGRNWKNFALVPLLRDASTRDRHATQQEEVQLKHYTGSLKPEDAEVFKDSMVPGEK

Row | SMILES | inhibition at 10 µM [1] [%] | activation at 10 µM [1] [%] | inhibition at 10 µM [2] [%] | activation at 10 µM [2] [%] | IC50 [2] [nM] | IC50 [1] [nM]
1 | FC(F)(F)c1cccc(NC(=S)N2CCC3(CC2)CC(c2ccccc2)=NO3)c1 [Compound 262, 3-phenyl-1-oxa-2,8-diazaspiro[4.5]dec-2-ene-8-thiocarboxylic acid-(3-trifluoromethylphenyl)amide] | 7.81 | -0.28 | 52.5 | -0.54 |  | 
2 | CC(C)c1ccc(NC(=O)N2CCC3(CC2)CC(c2ccc(C(C)(C)C)cc2)=NO3)cc1 [Compound 80, 3-(4-tert-butylphenyl)-1-oxa-2,8-diazaspiro[4.5]dec-2-ene-8-carboxylic acid-(4-isopropylphenyl)amide] | 3.6 | 0.89 | 62.1 | -0.47 |  | 
3 | CC(C)(C)c1ccc(NC(=O)N2CCC3(CC2)CC(c2ccccc2)=NO3)cc1 [Compound 141, 3-phenyl-1-oxa-2,8-diazaspiro[4.5]dec-2-ene-8-carboxylic acid-(4-tert-butylphenyl)amide] | 20.4 | -0.3 | 98.5 | 0.42 | 78 | 
4 | CSc1ccc(NC(=O)N2CCC3(CC2)CC(c2ccc(C)cc2)=NO3)cc1 [Compound 69, 3-p-tolyl-1-oxa-2,8-diazaspiro[4.5]dec-2-ene-8-carboxylic acid-(4-methylsulphanylphenyl)amide] | 7.01 | -0.32 | 87.2 | -0.47 |  | 
5 | COc1cccc(C2=NOC3(CCN(C(=O)Nc4cc(C(F)(F)F)ccc4Cl)CC3)C2)c1 [Compound 221, 3-(3-methoxyphenyl)-1-oxa-2,8-diazaspiro[4.5]dec-2-ene-8-carboxylic acid-(2-chloro-5-trifluoromethylphenyl)amide] | -11.6 | -0.04 | 72.8 | 0.95 |  | 
6 | CSc1ccccc1NC(=O)N1CCC2(CC1)CC(c1ccc(C(C)(C)C)cc1)=NO2 [Compound 56, 3-(4-tert-butylphenyl)-1-oxa-2,8-diazaspiro[4.5]dec-2-ene-8-carboxylic acid-(2-methylsulphanylphenyl)amide] | 16.4 | -0.22 | 47.3 | -0.04 |  | 
7 | Cc1ccc(C2=NOC3(CCN(C(=O)Nc4ccc(Cl)c(C(F)(F)F)c4)CC3)C2)cc1 [Compound 236, 3-p-tolyl-1-oxa-2,8-diazaspiro[4.5]dec-2-ene-8-carboxylic acid-(4-chloro-3-trifluoromethylphenyl)amide] | -10.3 | -0.28 | 45.1 | -0.47 |  | 
8 | CC(C)(C)c1ccc(C2=NOC3(CCN(C(=O)Nc4ccc(Cl)cc4)CC3)C2)cc1 [Compound 42, 3-(4-tert-butylphenyl)-1-oxa-2,8-diazaspiro[4.5]dec-2-ene-8-carboxylic acid-(4-chlorophenyl)amide] | 2.57 | -0.22 | 39.9 | -0.73 |  | 
9 | CCc1ccc(NC(=O)N2CCC3(CC2)CC(c2ccccc2)=NO3)cc1 [Compound 163, 3-phenyl-1-oxa-2,8-diazaspiro[4.5]dec-2-ene-8-carboxylic acid-(4-ethylphenyl)amide] | -3.15 | 0.12 | 84.3 | -0.43 |  | 

Other lines, results leading:

Row | inhibition at 10 µM [1] [%] | activation at 10 µM [1] [%] | inhibition at 10 µM [2] [%] | activation at 10 µM [2] [%] | IC50 [2] [nM] | IC50 [1] [nM] | SMILES
10 | 12 | 0 | 58 | 0 |  |  | COc1cccc(C2=NOC3(CCN(C(=O)C#Cc4ccc(C(F)(F)F)cc4)CC3)C2)c1 [Compound 361, 1-(3-(3-methoxyphenyl)-1-oxa-2,8-diazaspiro[4.5]dec-2-en-8-yl)-3-(4-(trifluoromethyl)phenyl)prop-2-yn-1-one]
11 | 3 | 0 | 62 | 0 | 1360 | 4380 | O=C(/C=C/c1cccc(Br)c1)N1CCC2(CC1)CC(c1ccccc1)=NO2 [Compound 346, (E)-3-(3-bromophenyl)-1-(3-phenyl-1-oxa-2,8-diazaspiro[4.5]dec-2-en-8-yl)prop-2-en-1-one]
12 | 53 | 0 | 60 | 0 | 478 | 1550 | COc1cccc(C2=NOC3(CCN(C(=O)/C=C/c4ccc(C(F)(F)F)nc4N4CCOCC4)CC3)C2)c1 [Compound 342, (E)-1-(3-(3-methoxyphenyl)-1-oxa-2,8-diazaspiro[4.5]dec-2-en-8-yl)-3-(2-morpholino-6-(trifluoromethyl)pyridin-3-yl)prop-2-en-1-one]
13 | 26 | 0 | 57 | 3 |  |  | CC(C)(C)c1ccc(/C(=C/C(=O)N2CCC3(CC2)CC(c2ccccc2F)=NO3)c2ccc(Cl)c(Cl)c2)cc1 [Compound 359, (Z)-3-(4-tert-butylphenyl)-3-(3,4-dichlorophenyl)-1-(3-(2-fluorophenyl)-1-oxa-2,8-diazaspiro[4.5]dec-2-en-8-yl)prop-2-en-1-one]
14 | 19 | 0 | 44 | -1 |  |  | COc1cccc(C2=NOC3(CCN(C(=O)/C=C/c4ccc(C(F)(F)F)nc4)CC3)C2)c1 [Compound 362, (E)-1-(3-(3-methoxyphenyl)-1-oxa-2,8-diazaspiro[4.5]dec-2-en-8-yl)-3-(6-(trifluoromethyl)pyridin-3-yl)prop-2-en-1-one]
